We go through one compound from ChEMBL document CHEMBL4265930, “Dual potent ALK and ROS1 inhibitors combating drug-resistant mutants: Synthesis and biological evaluation of aminopyridine-containing diarylaminopyrimidine derivatives” (Eur J Med Chem, 2018).

Calls of active or inactive are those of the source. The calls are words filed in the database; no cut-off is given here.

In assay [1] the target is T1, ALK tyrosine kinase receptor (Homo sapiens, UniProt Q9UM73).
Target sequence in this assay (Q9UM73 whole entry): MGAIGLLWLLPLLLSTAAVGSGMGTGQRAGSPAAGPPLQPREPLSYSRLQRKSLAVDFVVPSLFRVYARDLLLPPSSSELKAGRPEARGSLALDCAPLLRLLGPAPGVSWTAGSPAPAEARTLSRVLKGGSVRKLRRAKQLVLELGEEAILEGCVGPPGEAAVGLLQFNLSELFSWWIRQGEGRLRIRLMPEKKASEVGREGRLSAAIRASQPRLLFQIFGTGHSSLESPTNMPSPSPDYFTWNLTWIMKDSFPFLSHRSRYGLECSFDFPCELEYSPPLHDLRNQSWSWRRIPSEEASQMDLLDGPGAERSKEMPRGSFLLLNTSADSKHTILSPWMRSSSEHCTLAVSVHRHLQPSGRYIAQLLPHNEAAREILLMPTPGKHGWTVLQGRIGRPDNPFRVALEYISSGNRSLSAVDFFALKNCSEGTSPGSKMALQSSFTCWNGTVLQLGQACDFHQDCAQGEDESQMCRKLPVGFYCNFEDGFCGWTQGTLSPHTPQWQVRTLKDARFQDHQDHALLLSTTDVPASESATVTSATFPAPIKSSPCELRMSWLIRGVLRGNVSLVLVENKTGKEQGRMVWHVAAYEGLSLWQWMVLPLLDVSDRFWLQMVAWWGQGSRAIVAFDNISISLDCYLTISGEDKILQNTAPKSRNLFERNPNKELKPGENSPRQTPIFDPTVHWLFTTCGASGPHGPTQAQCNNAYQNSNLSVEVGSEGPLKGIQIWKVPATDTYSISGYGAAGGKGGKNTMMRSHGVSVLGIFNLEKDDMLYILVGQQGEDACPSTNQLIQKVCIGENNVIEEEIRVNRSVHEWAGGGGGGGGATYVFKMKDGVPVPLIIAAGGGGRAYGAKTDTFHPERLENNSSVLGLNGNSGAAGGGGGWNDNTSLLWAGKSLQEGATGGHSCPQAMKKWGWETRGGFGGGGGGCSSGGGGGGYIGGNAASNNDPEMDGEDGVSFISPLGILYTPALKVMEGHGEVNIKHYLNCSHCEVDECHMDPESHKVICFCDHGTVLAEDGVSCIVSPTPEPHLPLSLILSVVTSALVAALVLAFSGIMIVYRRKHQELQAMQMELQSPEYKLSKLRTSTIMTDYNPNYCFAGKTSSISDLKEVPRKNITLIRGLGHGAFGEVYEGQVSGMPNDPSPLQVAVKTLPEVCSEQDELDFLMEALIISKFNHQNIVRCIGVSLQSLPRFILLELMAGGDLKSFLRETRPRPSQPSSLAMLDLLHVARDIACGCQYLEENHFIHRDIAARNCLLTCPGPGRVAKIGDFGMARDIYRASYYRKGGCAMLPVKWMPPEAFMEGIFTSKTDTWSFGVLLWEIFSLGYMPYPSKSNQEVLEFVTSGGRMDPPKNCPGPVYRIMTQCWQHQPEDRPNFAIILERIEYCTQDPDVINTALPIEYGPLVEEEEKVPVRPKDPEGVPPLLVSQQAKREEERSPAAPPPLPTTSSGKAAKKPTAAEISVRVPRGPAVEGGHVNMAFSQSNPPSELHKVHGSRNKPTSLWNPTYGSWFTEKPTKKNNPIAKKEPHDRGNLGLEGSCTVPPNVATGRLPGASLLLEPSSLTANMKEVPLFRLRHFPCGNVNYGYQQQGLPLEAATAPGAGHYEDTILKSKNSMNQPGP
Description: Inhibition of human N-terminal GST-tagged ALK cytoplasmic domain (1058 to 1620 residues) expressed in baculovirus expression system after 1 hr by mobility shift assay
The test system of a further assay is A549. The assay is described as follows: cells. The following applies: Homo sapiens, A549, 72 h.
The subject of assay [2] is KARPAS-299. The assay is described as follows: Induction of apoptosis in human KARPAS299 cells assessed as early apoptotic cells at 25 to 50 nM after 24 hrs by Hoechst 33258 staining based inverted fluorescence microscopy. Format: functional, cell-based.
In assay [3] the target is ALK tyrosine kinase receptor (Homo sapiens, UniProt Q9UM73, G1202R).
For assay [4], the system named is KARPAS-299. The assay is described as follows: cells. The note with it: Homo sapiens, KARPAS-299, 72 h.
Description: Antiproliferative activity against human KARPAS299 cells harboring NPM-ALK after 72 hrs by MTT assay
Assay [5] concerns the target Epidermal growth factor receptor (Homo sapiens, UniProt P00533).
Description: Inhibition of human N-terminal GST-tagged EGFR cytoplasmic domain (669 to 1210 residues) expressed in baculovirus expression system after 1 hr by mobility shift assay
In assay [6] the target is Proto-oncogene tyrosine-protein kinase ROS (Homo sapiens, UniProt P08922). The assay is described as follows: Inhibition of human N-terminal GST-tagged ROS cytoplasmic domain (1883 to 2347 residues) expressed in baculovirus expression system after 1 hr by mobility shift assay.
In assay [7] the test system is KARPAS-299. The assay is described as follows: Induction of apoptosis in human KARPAS299 cells assessed as late apoptotic cells at 25 to 50 nM after 24 hrs by AO/EB double staining based inverted fluorescence microscopy. Format: functional, cell-based.
Assay [8] concerns the target T1, ALK tyrosine kinase receptor. The assay is described as follows: Inhibition of ALK phosphorylation in human KARPAS299 cells after 24 hrs by Western blot analysis. It is filed as cell-based.
Target sequence in this assay (Q9UM73 19-1620 limits assumed): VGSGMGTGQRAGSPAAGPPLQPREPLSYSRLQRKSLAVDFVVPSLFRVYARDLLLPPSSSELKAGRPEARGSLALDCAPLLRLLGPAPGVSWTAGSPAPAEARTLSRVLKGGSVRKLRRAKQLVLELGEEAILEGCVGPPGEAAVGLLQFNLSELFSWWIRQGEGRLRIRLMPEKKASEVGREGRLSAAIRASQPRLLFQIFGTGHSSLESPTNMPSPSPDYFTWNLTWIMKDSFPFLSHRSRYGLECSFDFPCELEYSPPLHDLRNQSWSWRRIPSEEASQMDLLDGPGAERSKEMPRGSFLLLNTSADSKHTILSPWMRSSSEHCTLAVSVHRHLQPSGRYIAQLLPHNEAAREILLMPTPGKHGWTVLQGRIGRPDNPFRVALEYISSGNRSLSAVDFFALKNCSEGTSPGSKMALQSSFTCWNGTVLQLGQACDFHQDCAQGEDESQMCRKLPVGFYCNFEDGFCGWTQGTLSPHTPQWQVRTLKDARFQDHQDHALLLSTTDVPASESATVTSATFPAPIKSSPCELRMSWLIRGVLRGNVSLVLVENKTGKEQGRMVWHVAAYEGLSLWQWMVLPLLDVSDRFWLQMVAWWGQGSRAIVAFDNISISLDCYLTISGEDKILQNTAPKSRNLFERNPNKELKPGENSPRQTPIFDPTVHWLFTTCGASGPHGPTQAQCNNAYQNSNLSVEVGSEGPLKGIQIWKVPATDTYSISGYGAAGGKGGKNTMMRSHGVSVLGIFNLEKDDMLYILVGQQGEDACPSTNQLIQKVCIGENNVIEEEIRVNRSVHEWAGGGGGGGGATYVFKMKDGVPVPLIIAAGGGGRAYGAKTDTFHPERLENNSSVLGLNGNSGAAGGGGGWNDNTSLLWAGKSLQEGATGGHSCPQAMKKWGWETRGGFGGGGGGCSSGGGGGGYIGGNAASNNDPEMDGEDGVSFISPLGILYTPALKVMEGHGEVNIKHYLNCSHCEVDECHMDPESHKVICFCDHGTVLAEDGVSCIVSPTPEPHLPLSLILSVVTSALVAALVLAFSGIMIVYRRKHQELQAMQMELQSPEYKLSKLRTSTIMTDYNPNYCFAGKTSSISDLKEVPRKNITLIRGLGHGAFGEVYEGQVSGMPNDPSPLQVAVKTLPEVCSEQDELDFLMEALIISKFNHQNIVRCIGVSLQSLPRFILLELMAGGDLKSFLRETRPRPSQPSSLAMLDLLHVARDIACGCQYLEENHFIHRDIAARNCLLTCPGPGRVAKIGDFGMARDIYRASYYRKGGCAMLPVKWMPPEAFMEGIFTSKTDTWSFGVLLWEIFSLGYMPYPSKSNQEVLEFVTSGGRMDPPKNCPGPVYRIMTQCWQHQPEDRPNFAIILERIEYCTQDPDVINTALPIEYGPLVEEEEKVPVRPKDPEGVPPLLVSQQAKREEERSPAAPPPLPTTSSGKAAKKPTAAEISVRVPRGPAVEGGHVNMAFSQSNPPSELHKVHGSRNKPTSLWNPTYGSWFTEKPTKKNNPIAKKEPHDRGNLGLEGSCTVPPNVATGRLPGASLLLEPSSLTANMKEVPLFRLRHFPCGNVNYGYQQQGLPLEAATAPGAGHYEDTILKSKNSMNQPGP
Assay [9] has as its system ALK tyrosine kinase receptor (Homo sapiens), Q9UM73 [G1202R]. The assay is described as follows: Potency index, ratio of ceritinib IC50 to compound IC50 for human N-terminal GST-tagged ALK G1202R mutant cytoplasmic domain (1058 to 1620 residues) expressed in baculovirus expression system.
The target of assay [10] is T1, ALK tyrosine kinase receptor. The assay is described as follows: Inhibition of ALK in human KARPAS299 cells assessed as decrease in Akt phosphorylation after 24 hrs by Western blot analysis. It is filed as cell-based.
Target sequence in this assay (Q9UM73 19-1620 limits assumed): as above
In the next assay the test system is BaF3. The assay is described as follows: cells. The note with it: Mus musculus, BaF3, 72 h.
Assay [11] addresses ALK tyrosine kinase receptor (Homo sapiens, UniProt Q9UM73, L1196M).
Description: Inhibition of human N-terminal GST-tagged ALK L1196M mutant cytoplasmic domain (1058 to 1620 residues) expressed in baculovirus expression system after 1 hr by mobility shift assay
A further assay has as its system NCI-H2228. The assay is described as follows: cells. The note with it: Homo sapiens, NCI-H2228, 72 h.
For a further assay, the system named is HCC78. The assay is described as follows: Antiproliferative activity against human HCC78 cells harboring SLC34A2-ROS1 after 72 hrs by MTT assay. It is filed as functional, cell-based. The following applies: HCC78, 72 h. For orientation: Tetrazolium assays rely on reduction of a dye to a coloured formazan, in cell work by metabolically active cells.
Assay [12] has as its target T1, ALK tyrosine kinase receptor. The assay is described as follows: Inhibition of ALK in human KARPAS299 cells assessed as decrease in STAT3 phosphorylation after 24 hrs by Western blot analysis. It is filed as cell-based. In general terms: Immunoblotting shows a protein as a band on a membrane.
Target sequence in this assay (Q9UM73 19-1620 limits assumed): as above
Assay [13] concerns ALK tyrosine kinase receptor (Homo sapiens), Q9UM73 [L1196M]. The assay is described as follows: Potency index, ratio of ceritinib IC50 to compound IC50 for human N-terminal GST-tagged ALK L1196M mutant cytoplasmic domain (1058 to 1620 residues) expressed in baculovirus expression system.
Sequence of ALK tyrosine kinase receptor (Homo sapiens), Q9UM73 [L1196M] (Q9UM73 whole entry L1196M, looked up, the tested form may be a part): as the sequence (Q9UM73 whole entry) above, with L1196M counted along it

Sequence of ALK tyrosine kinase receptor (Homo sapiens, UniProt Q9UM73, G1202R) (Q9UM73 19-1620 G1202R limits assumed): as the sequence (Q9UM73 19-1620 limits assumed) above, with G1184R counted along it
Sequence of ALK tyrosine kinase receptor (Homo sapiens), Q9UM73 [G1202R] (Q9UM73 whole entry G1202R, the tested form may be a part): as the sequence (Q9UM73 whole entry) above, with G1202R counted along it
Sequence of Epidermal growth factor receptor (P00533 whole entry, the tested form may be a part): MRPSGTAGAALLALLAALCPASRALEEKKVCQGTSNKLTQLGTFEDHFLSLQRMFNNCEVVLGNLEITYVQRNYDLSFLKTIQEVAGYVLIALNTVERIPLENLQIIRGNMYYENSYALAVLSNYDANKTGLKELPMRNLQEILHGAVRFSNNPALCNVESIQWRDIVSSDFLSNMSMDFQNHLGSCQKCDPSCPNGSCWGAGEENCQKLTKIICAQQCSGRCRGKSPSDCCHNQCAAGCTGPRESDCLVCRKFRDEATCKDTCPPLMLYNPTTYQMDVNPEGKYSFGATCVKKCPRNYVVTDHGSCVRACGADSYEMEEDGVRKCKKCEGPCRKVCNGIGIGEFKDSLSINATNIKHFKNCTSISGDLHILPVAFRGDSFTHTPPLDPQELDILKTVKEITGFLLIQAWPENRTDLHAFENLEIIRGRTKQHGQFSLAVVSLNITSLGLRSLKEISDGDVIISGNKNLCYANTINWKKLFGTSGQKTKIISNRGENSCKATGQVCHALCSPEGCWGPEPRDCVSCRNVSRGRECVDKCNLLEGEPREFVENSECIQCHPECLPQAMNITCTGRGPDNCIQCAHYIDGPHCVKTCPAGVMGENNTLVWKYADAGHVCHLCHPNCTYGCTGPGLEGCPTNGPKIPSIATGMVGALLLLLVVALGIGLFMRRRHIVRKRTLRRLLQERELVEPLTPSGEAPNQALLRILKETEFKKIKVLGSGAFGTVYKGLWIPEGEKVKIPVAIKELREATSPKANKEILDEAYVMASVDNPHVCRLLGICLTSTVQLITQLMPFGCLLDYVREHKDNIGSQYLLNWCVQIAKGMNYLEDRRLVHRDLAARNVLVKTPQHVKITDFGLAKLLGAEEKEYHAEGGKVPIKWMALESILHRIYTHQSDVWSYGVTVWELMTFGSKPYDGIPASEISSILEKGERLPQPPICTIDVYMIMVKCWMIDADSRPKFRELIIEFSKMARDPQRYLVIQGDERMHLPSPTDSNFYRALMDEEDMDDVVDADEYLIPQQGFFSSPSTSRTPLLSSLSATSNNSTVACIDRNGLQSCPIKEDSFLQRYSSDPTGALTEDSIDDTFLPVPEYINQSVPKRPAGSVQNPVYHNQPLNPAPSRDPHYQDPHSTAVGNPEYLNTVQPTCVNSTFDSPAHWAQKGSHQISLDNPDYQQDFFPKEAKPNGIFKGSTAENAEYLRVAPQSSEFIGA
Sequence of ALK tyrosine kinase receptor (Homo sapiens, UniProt Q9UM73, L1196M) (Q9UM73 19-1620 L1196M limits assumed): as the sequence (Q9UM73 19-1620 limits assumed) above, with L1178M counted along it
Description for A549: Antiproliferative activity against human A549 cells after 72 hrs by MTT assay
Description for NCI-H2228: Antiproliferative activity against human NCI-H2228 cells harboring EML4-ALK after 72 hrs by MTT assay

As for `COc1nc(N2CCN(C)CC2)ccc1Nc1ncc(Cl)c(Nc2ccccc2NS(C)(=O)=O)n1`, the half-maximal inhibitory concentration (IC50) (usually the concentration at which inhibition is half-maximal) in [1] was 2.1 µM; with A549, more than 1 µM; in [3] it was 3.9 µM; in the assay with KARPAS-299 [4] it was 0.01 µM; in [5], more than 1000 µM; in [6] it was 2.3 µM. The IC50 in the assay with BaF3 came out at 0.03 µM; in [11], 1.3 µM; with NCI-H2228 it was 0.012 µM; in the assay with HCC78 it was 0.043 µM. The result in the assay on KARPAS-299 [2] and with KARPAS-299 [7] was Active. In addition, the inhibition entry in [8], in assay [10] and in assay [12] was “Dose-dependent effect” each time. In addition, the Ratio IC50 in assay [9] and in [13] was 11 to 23 each time.
